Patent US9326996B2, “Use of xenon as neuroprotectant in a neonatal subject” (IMPERIAL INNOVATIONS LIMITED, priority 2004, dated 2016)
Where two headings read alike, the source gives them in different places.

How the values were obtained:
[1] = system: activated caspase-3 in hippocampus; test: Hippocampal activated caspase-3 immunohistochemistry after anesthetic gas exposure
Method: (§1) 7 day old Sprague-Dawley rat pups were placed in individual wells of a custom-built anesthetic chamber, and randomised to groups A-F to receive one of 6 gas combinations for 6 hours. Previous work has established that NMDA receptor antagonists have their maximal neurodegenerative affect 7 days after birth (Ikonomidou et al., 1999).
(§2) Group B received 75% nitrous oxide and 25% oxygen as delivered by a calibrated anesthetic machine, whereas group C received 75% xenon along with 25% oxygen through a customised anesthetic machine modified for xenon delivery (Ohmeda, modified by Air Products, Surrey, UK). Group D were exposed to 25% oxygen along with 0.75% isoflurane. The remaining 2 groups were exposed to combinations of gases—namely 25% oxygen+75% nitrous oxide+0.75% isoflurane (group E) and 25% oxygen+60% xenon+15% nitrogen+0.75% isoflurane (group F). The high cost of xenon precludes its use in an open-circuit, consequently group C and group F received gases using a closed-circuit system, whereas gases for all other groups were delivered in a high-flow open-circuit.
(§3) Rats destined for immunohistochemistry were sacrificed with 100 mg kg^−1 sodium pentobarbital IP immediately post-anesthesia, whereas those rats for DeOlmos silver staining were allowed to recover for 18 hrs before undergoing the same procedure. A thoracotomy was performed, and the aorta cannulated via a needle inserted into the apex of the heart. The pup was then perfused with 10 ml of 1% heparin solution, with the excess solution leaving through an incision in the right atrium. To fix the tissues, 20 ml of 4% paraformaldehyde in 0.1M phosphate buffer was injected by the same transcardial route. The whole brain was then removed and allowed to fix in paraformaldehyde perfusate and refrigerated at 4° C. 24 hours later, the brains were transferred to a solution of 30% sucrose with phosphate buffer and 1% sodium azide, and were kept refrigerated until the brains sank (approximately 48 hours).
(§4) Once processed, a block was cut to safely include the area of interest—a coronal section −3.6 mm from the bregma (FIG. 1B). The blocks were then embedded and frozen into O.C.T. solution. The block was then cut coronally into approximately 120 slices, each 30 μm thick, with a cryostat (Bright Instrument Company Ltd., Huntingdon, UK). The cut sections were transferred to a 6 well plate containing phosphate buffered saline (PBS).
A random well from each cut block, each containing around 20 representative slices of the total block, was transferred to a marked silk-bottomed well using a 3 ml Pasteur pipette. The sections were then washed in 5 ml of PBS for 5 min on a shaker set at 75 rpm. This washing procedure was repeated twice more, replacing the PBS each time. […]

[2] = in vivo; cited from earlier work
[3] = system: activated caspase-3 in cortex; test: Cortical activated caspase-3 immunohistochemistry after anesthetic gas exposure
Method: as §1, §2, §3, §4
A random well from each cut block, each containing around 20 representative slices of the total block, was transferred to a marked silk-bottomed well using a 3 ml Pasteur pipette. The sections were then washed in 5 ml of PBS for 5 min on a shaker set at 75 rpm. This washing procedure was repeated twice more, replacing the PBS each time. To quench the sections, they were incubated at room temperature on a shaker for 30 min in a solution comprising 35 ml methanol, 15 ml of PBS and 500 μl of stock 30% H2O2.
The quenching solution was then removed, and the sections washed three times in PBS. Sections were blocked for 60 min at room temperature with 50 ml of PBST (PBS containing 0.5% Triton-X (Promega Corporation, Madison, Wis.)), and 1500 μl of normal goat serum (NGS) (Vector Laboratories Inc., Burlingame, Calif.). For incubation with the primary antibody, the sections were kept overnight at 4° C. on a shaker set at 50 rpm in a solution made up of […] rabbit anti-cleaved caspase-3 antibody (New England Biolabs, Hertfordshire, UK), 50 ml of PBST and 500 μl of NGS. […]

[4] = system: pure neuronal cultures; test: FACS assessment of necrotic, viable and apoptotic cell populations after preconditioning and oxygen glucose deprivation
Method: Neuronal cells were harvested from 19 day old embryonic mice by cesarean section for pregnant BALB/c mice. 6-9 mouse brains were removed from fetal mice and dissected to isolate whole cerebral neocortices devoid of the hippocampus, basal ganglia and meninges. Again throughout the micro dissection process, brain tissues were kept in 4° C. HSG solution. […] The cells were plated at a density of 1.2×10^5 cells, per cm^2 on 24-multiwell plates (Cater, Cambridge, Mass.) and the cultures were maintained at 37° C. in a humidified 5% CO2 environment. Neurobasal Media supplemented with B27, glutamine and AAS was used to resuspend the neuronal cells and as culture medium. For every 10 ml of Neurobasal Media, the following supplements were added: 200 μl B27, 100 μl antibiotic and 25 μl glutamine. Medium replacement for these cells was performed on day 2, 5 and 7 with pre-warmed 37° C. culture medium (Neurobasal Media, B27, Glutamine and AAS). On day 5 after neuronal plating, 100 μl/10 ml cytosine arabinoside (CA hydrochloride, Sigma) was added to the cell cultures to halt non-neuronal cell division. Neuronal cell cultures were ready to use on day 7.
Cells were preconditioned using a purpose built 1.4 liter airtight, temperature controlled gas chambers. The chambers had inlet and outlet valves and an internal electric fan to ensure effective and continuous delivery of gases. Gas flow rate was 100 ml/min, and so chambers were flushed and allowed to equilibrate for 45 minutes before establishing a closed system. Cells were preconditioned for 2 hours inside the closed system with the appropriate gas concentrations using flow meters. Sevoflurane was delivered using a vaporiser (Datex-Ohmeda).
To model ischaemic damage in the brain, neuronal cells were subjected to oxygen glucose deprivation. Twenty four hours after preconditioning cells, cultures were washed twice with HEPES buffer solution (120 mM NaCl, 5.4 mM KCL, 0.8 mM MgCl2, 15 mM glucose and 20 mM HEPES, titrated to pH 7.4 using 1M NaOH). […] The cells were exposed to this anoxic environment for 75 minutes. Oxygen glucose deprivation was terminated by removing the cultures from the gas chamber and changing the media; cultures destined for lactate dehydrogenase (LDH) assay were washed once and replaced with Eagle's minimal essential medium enhanced with 25 mM glucose and 38 mM NaHCO3, whereas pure neuronal cultures for FACS were washed once and replaced with Neurobasal Media supplemented with B27, glutamine and AAS.
Twenty fours hours after oxygen glucose deprivation, cells were stained for FACS analysis. The culture medium was removed and washed twice with HEPES buffer solution. […] Cells were then washed twice with 1×BB, and then 0.8 μg/ml propidium iodide (Sigma-Aldrich, Poole, UK) in 1% fetal bovine serum (FBS) in phosphate buffer solution (PBS) was added and left to incubate on ice for 5 minutes. […] 800 μl 1% FBS in PBS was then added to stop the reaction, cells were removed and added to tubes for centrifugation at 1200 g for 10 minutes. The supernatant was discarded and the cells were re-suspended with 300 μl 1% FBS in PBS. Steps, if possible, were performed on ice to reduce the amount of neuronal death.
A FACSCalibur (Becton Dickinson, Sunnyvale, Calif.) with a single argon laser was used for flow cytometric analysis. […] At least 10,000 cells per sample were analysed.

[5] = system: neuronal glial co-culture; test: LDH release after preconditioning and oxygen glucose deprivation, neuronal glial co-culture; assay type: cell-based, mouse; details: for LDH release following oxygen glucose deprivation: 2 h preconditioning
Method: The pups were anaesthetised with isoflurane and then decapitated with the heads placed immediately into 4° C. HSG solution, an isotonic, high sucrose glucose solution made primarily from Hank's balanced salt solution (HBSS, GibroBRL) enhanced with NaHCO3 (0.04 M), sucrose (0.2 M) and D-Glucose (0.3 M) also containing antibiotic-anti-mycotic solution (AAS, GibroBRL). […] HSG solution.
The brain tissue was then immersed in 0.25% trypsin and was placed in a shaking air chamber for 50 minutes at 37° C. filled with 5% CO2 and 95% room air. DNase was then added to the mixture and placed back into the shaking air chamber for a further 15 minutes. The mixture was then centrifuged at 1600 rpm for 10 minutes at 4° C. and the supernatant was carefully discarded. The cells were then resuspended and then plated at a density of 6.25×10^4 cells/cm^2 on 24-multiwell plates (Costar, Cambridge, Mass.) and cultured in a medium consisting of Eagle's minimum essential medium augmented with 20 mM glucose, 26 mM NaHCO3, 10% foetal bovine serum, 10% heat-inactivated horse serum, AAS (Gibco, Paisley, UK), 2 mM glutamine (Sigma, Poole, UK) and 10 ng/ml murine epidermal growth factor (EGF) (GibcoBRL). Glial cells reached confluence about one week after plating.
Using a similar procedure cortical neuronal cells were obtained from fetal BALB/c mice at 14-16 days of gestation and plated at a density of 1.25×10^5 cells per cm^2 on the confluent monolayer of glial cells derived from the corresponding genetic strain. Neuronal cells reached confluence 10 days after plating.
Sevoflurane was delivered using a vaporiser (Datex-Ohmeda).
The amount of neuronal damage was assessed by the amount of LDH released into the culture medium, using a standardised colorimetric enzyme kit (Sigma, Poole, UK). This technique has been previously described (Wilhelm et al 2002). LDH assessment was performed 16 hours after oxygen glucose deprivation (FIG. 8).

[6] = 7 day old Sprague-Dawley rats, 6 h exposure with 25% oxygen, 75% N2O, 75% xenon, 0.75% isoflurane, 75% N2O+0.75% isoflurane, 60% xenon+0.75% isoflurane, air control 19.3±6.4
[7] = 12.5% xenon, 0.67% sevoflurane or their combination as preconditioning, then oxygen glucose deprivation
[8] = Sprague-Dawley, rat, in vivo, 6 h

SMILES: [Xe] [xenon]
- number of caspase-3 positive cells in hippocampus (mean±SD) ([1]; 7 day old Sprague-Dawley rats, 6 h exposure with 25% oxygen, 75% N2O, 75% xenon, 0.75% isoflurane, 75% N2O+0.75% isoflurane, 60% xenon+0.75% isoflurane, controls 5.2±1.8): 5.0±3.2
- atmosphere sufficient to induce or maintain anesthesia [2]: about 70%
- number of caspase-3 positive cells in cortex (mean±SD) [3, 6]: 19.7±9.6
- necrotic cell population [4]: 75+/−2%
- apoptotic cell population [4, 7]: 9+/−1%
- viable cell population [4, 7]: 9%
- LDH release following oxygen glucose deprivation ([5]; xenon at 12.5%, not significant): 83+/−7 % of controls
- LDH release following oxygen glucose deprivation ([5]; xenon at 25%, not significant): 70+/−11 % of controls
- LDH release following oxygen glucose deprivation ([5]; xenon at 50%, p<0.05): 55+/−12 % of control values
- LDH release following oxygen glucose deprivation ([5]; xenon at 75%, p<0.05): 49+/−12 % of control values

SMILES: FC(F)OC(Cl)C(F)(F)F (centres unmarked) [isoflurane]
- increase in the level of apoptosis in the hippocampus vs controls [1, 8]: 4 fold
- number of caspase-3 positive cells in hippocampus (mean±SD) [1, 8]: 22.1±9.6
- increase in the level of apoptosis in the cortex vs controls ([3]; 0.75% isoflurane or 75% N2O+0.75% isoflurane, neonatal rats): 4 fold
- number of caspase-3 positive cells in cortex (mean±SD) [3, 6]: 76.5±11.4

SMILES: [N-]=[N+]=O [N2O, nitrous oxide]
- number of caspase-3 positive cells in hippocampus (mean±SD) [1, 8]: 3.7±1.4
- number of caspase-3 positive cells in cortex (mean±SD) [3, 8]: 22.5±5.9

SMILES: FCOC(C(F)(F)F)C(F)(F)F [sevoflurane]
- atmosphere sufficient to maintain anesthesia [2]: about 2.5%
- degenerating neurons, positive cells ([3]; 1.5% sevoflurane alone, control value 20.0±2, brain region not stated): 42±2 positive cells
- apoptotic cell population [4, 7]: 17+/−1%
- viable cell population [4, 7]: 9%
- necrotic cell population ([4]; 12.5% xenon, 0.67% sevoflurane or their combination as preconditioning, then oxygen glucose deprivation, sham 70+/−2%, control 17+/−1%): 81+/−2%
- concentration producing a significant reduction in LDH release ([5]; 2 h preconditioning followed by OGD): greater than 1.9%
- LDH release following oxygen glucose deprivation ([5]; sevoflurane at 0.67%, ineffective): 97+/−5 % of controls
- LDH release following oxygen glucose deprivation ([5]; sevoflurane at 1.3%): 100+/−11 % of controls
- LDH release following oxygen glucose deprivation ([5]; sevoflurane at 2.7%, p<0.05): 64+/−6 % of control
- LDH release following oxygen glucose deprivation ([5]; sevoflurane at 3.3%, p<0.001): 37+/−5 % of controls
